Source: PubChem BioAssay AID720643 (The Scripps Research Institute Molecular Screening Center, 2013)
Active and inactive are the calls of the source.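 How the source made its calls: active means EC50 of 10 µM or lower; inactive means EC50 above 10 µM.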

What follows are compounds tested against 5-hydroxytryptamine receptor 2A (Mus musculus) (UniProt P35363) (assay: mouse HTR2A agonist potency, beta-arrestin, late-stage follow-up, cell-based, luminescence, CHO-K1, powder samples, dose response (AID 720643)). Details: CHO-K1 mHTR2A beta-arrestin PathHunter luminescence.
Chain of 5-hydroxytryptamine receptor 2A (Mus musculus) (P35363 whole entry, looked up): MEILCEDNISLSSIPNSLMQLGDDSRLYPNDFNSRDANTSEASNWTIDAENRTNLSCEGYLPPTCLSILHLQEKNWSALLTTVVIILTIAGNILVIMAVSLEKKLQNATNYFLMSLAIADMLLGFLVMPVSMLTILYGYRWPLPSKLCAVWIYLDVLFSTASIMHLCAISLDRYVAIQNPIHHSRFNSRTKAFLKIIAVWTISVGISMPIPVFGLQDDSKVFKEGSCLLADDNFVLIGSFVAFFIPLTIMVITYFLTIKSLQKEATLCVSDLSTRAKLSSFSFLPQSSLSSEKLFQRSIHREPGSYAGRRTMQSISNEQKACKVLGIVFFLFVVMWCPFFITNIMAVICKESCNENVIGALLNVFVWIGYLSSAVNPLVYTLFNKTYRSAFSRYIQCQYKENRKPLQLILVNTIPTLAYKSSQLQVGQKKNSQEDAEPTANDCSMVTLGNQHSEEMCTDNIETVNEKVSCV

SMILES | EC50
c1ccc(N2CCN(Cc3ccsc3)CC2)nc1 | > 76.1 µM (inactive)
CCOC(=O)N1CCN(Cc2ccc(OCC(O)CN3CCCCC3)cc2)CC1 (stereo not drawn) | > 76.1 µM (inactive)
COc1ccc(CN2CCN(C(=O)c3ccco3)CC2)cc1OCc1ccccc1 | > 76.1 µM (inactive)
CCn1c(=O)cc(SCC(=O)NCCCN2CCN(c3ccccc3F)CC2)c2ccccc21 | > 76.1 µM (inactive)
Clc1ccc(CN2CCN(c3ncccn3)CC2)cc1 | > 76.1 µM (inactive)
Oc1ccc(CN2CCN(c3ncccn3)CC2)cc1 | > 76.1 µM (inactive)
Fc1ccc(F)c(CN2CCN(c3ncccn3)CC2)c1 | > 76.1 µM (inactive)
Cc1cccc(CN2CCN(c3ccccn3)CC2)c1 | > 76.1 µM (inactive)
CC(COc1ccccc1)N1CCC(CO)(Cc2ccccc2)CC1 (stereo not drawn) | > 76.1 µM (inactive)
Brc1ccc(CN2CCN(c3ccccn3)CC2)s1 | > 76.1 µM (inactive)
COc1ccc(CC2(CO)CCN(Cc3cc4ccccc4o3)CC2)cc1 | > 76.1 µM (inactive)
Clc1ccc(CN2CCN(c3ncccn3)CC2)cc1Cl | > 76.1 µM (inactive)
Cc1ccc(CN2CCN(c3ccccn3)CC2)s1 | > 76.1 µM (inactive)
Clc1ccccc1CN1CCN(c2ncccn2)CC1 | > 76.1 µM (inactive)
Clc1ccccc1CN1CCN(c2ccccc2)CC1 | > 76.1 µM (inactive)
COc1ccc(CN2CCN(c3ncccn3)CC2)c(OC)c1 | > 76.1 µM (inactive)
CC(=O)N1CCC(N2CCN(c3ccccc3F)CC2)CC1 | > 76.1 µM (inactive)
c1ccc(CN2CCN(c3ncccn3)CC2)cc1 | > 76.1 µM (inactive)
Cc1ccc(CN2CCN(c3ncccn3)CC2)o1 | > 76.1 µM (inactive)
CN(c1ccc(C(=O)N2CCN(Cc3ccccc3)CC2)cc1)S(=O)(=O)c1ccc(Cl)cc1 | > 76.1 µM (inactive)
Cc1ccsc1CN1CCN(c2ccccn2)CC1 | > 76.1 µM (inactive)
Brc1cccc(CN2CCN(c3ncccn3)CC2)c1 | > 76.1 µM (inactive)
CCOC(=O)C1CCN(Cc2cccc(Oc3ccc(Cl)cc3)c2)CC1 | > 76.1 µM (inactive)
CCOc1ccc(NC(=O)CCN2CCN(c3ccccc3F)CC2)cc1 | > 76.1 µM (inactive)
OC(COc1ccc2cc(Br)ccc2c1)CN1CCN(c2ccccn2)CC1 (stereo not drawn) | > 76.1 µM (inactive)
OCC1(Cc2cccc(C(F)(F)F)c2)CCN(Cc2cc3ccccc3o2)CC1 | > 76.1 µM (inactive)
Fc1ccccc1CN1CCN(c2ncccn2)CC1 | > 76.1 µM (inactive)

SMILES | EC50
Cc1cccc(CN2CCN(c3ncccn3)CC2)c1 | > 76.1 µM (inactive)
COc1ccc(CN2CCN(c3ncccn3)CC2)c(C)c1C | > 76.1 µM (inactive)
Fc1cccc(CN2CCN(c3ncccn3)CC2)c1 | > 76.1 µM (inactive)
COc1cccc(-n2cc(CNCc3cn(C)nc3-c3ccccc3F)cn2)c1 | > 76.1 µM (inactive)
CC(C)C[C@H]1C(=O)N2CCC[C@H]2[C@]2(O)O[C@](NC(=O)[C@@H]3C=C4c5cccc6[nH]c(Br)c(c56)CC4N(C)C3)(C(C)C)C(=O)N12 (stereo partly drawn) | > 76.1 µM (inactive)
CCCN1CCC[C@H](c2cccc(O)c2)C1 | > 76.1 µM (inactive)
CCc1ccc(CN2CCN(C(=O)c3ccco3)CC2)cc1 | > 76.1 µM (inactive)
O=C(CN1CCN(c2ccccn2)CC1)Nc1ccc(Oc2ccccc2)cc1 | > 76.1 µM (inactive)
COC(=O)C1=C(Cn2cnc3ccccc32)NC(=O)NC1c1cc(C)ccc1C (stereo not drawn) | 3.47 µM
O=C(c1ccco1)N1CCN(Cc2ccc(Cl)cc2)CC1 | > 76.1 µM (inactive)
COc1cccc(OCC(O)CN2CCN(c3ccccn3)CC2)c1 (stereo not drawn) | > 76.1 µM (inactive)
CC(=O)N1CCc2cc(C(=O)CN3CCN(c4cccc(Cl)c4)CC3)ccc21 | > 76.1 µM (inactive)
C=CCN1CCc2nc(N)sc2CC1 | > 76.1 µM (inactive)
COc1cc(CN2CCN(c3ncccn3)CC2)cc(OC)c1 | > 76.1 µM (inactive)
CCCN(CCC)C1CCc2cccc(O)c2C1 (stereo not drawn) | > 76.1 µM (inactive)
COc1cc(Br)cc(CN2CCN(c3ncccn3)CC2)c1O | > 76.1 µM (inactive)
COc1ccccc1C(=O)NCCN1CCN(c2ccccc2)CC1 | > 76.1 µM (inactive)
CCOc1cc(CN2CCN(C(=O)c3ccco3)CC2)ccc1OC | > 76.1 µM (inactive)
Cc1ccc(CN2CCN(c3ncccn3)CC2)c(C)c1 | > 76.1 µM (inactive)
Cn1cc(C(F)(F)F)nc1-c1ccc(OCC(O)CNCCOc2ccc(O)c(C(N)=O)c2)cc1 (stereo not drawn) | > 76.1 µM (inactive)
CC1CC(C)CN(CCOc2cccc(Cl)c2Cl)C1 (stereo not drawn) | > 76.1 µM (inactive)
CC1(C)C(C=C(Cl)Cl)C1C(=O)N1CCN(Cc2ccccc2)CC1 (stereo not drawn) | > 76.1 µM (inactive)
NC1CCc2cc(O)c(O)cc2C1 (stereo not drawn) | > 76.1 µM (inactive)
COc1ccc(CN2CCN(c3ccccn3)CC2)c(OC)c1 | > 76.1 µM (inactive)
c1ccc(COc2ccc(CN3CCN(c4ccccn4)CC3)cc2)cc1 | > 76.1 µM (inactive)
NC[C@@H]1O[C@H](C23CC4CC(CC(C4)C2)C3)Cc2c1ccc(O)c2O | > 76.1 µM (inactive)
